Test results reported in patent publication US12239654B2, “Compounds and methods for treating neurological and cardiovascular conditions” (Astrocyte Pharmaceuticals, Inc., priority 2016, dated 2025).

What was measured:
[1] = molecular target: T1, mouse A3 adenosine receptor (Mus musculus, UniProt Q61618); experiment: Competition binding versus [^3H]NECA at mouse A3 receptors expressed in CHO cells
T1 construct: expressed in transfected cells; whole cells for cAMP
T1 sequence (Q61618 1-319): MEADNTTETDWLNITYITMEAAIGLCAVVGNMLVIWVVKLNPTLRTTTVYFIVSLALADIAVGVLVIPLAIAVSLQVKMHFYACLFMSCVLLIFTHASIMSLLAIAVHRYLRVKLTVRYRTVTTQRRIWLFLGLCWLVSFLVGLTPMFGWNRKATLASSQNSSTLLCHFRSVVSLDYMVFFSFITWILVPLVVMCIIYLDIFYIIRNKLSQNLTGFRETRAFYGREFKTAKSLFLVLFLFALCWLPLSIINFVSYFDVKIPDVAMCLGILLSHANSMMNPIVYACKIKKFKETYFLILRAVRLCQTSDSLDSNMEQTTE

[2] = Pharmacokinetics of MRS4322 following intraperitoneal administration of MRS2365 to mice; assay type: in vivo; conditions: for Plasma Concentration Mean / Plasma Concentration by Subject / Brain Concentration Mean / Brain Concentration by Subject: analyte MRS4322, mice, MRS2365 0.24 mg/kg ip; for Plasma Concentration by Subject / Brain Concentration by Subject: subjects A-C
Method: Animals: Female C576BL/6J mice weighing approximately 0.02 Kg were used for this study, supplied by the University of Texas Health Sciences Center (San Antonio, TX). All studies were conducted under approved University of Texas Health Sciences Center IACUC protocols.
Drug Administration: MRS2365 was solubilized in phosphate-buffered saline and then diluted in phosphate-buffered saline to prepare dosing solution. Final dosing solution concentration of MRS2365 was 100 μM. A 100 μL volume of dosing solution was administered intraperitoneally to each mouse per 20 gram body weight; MRS2365 was administered intraperitoneally at 0.5 μmol/kg or 0.24 mg/kg. Three mice were administered MRS2365 for each sampling timepoint.
Tissue Sampling: Blood and brain samples were obtained at 0, 0.083, 0.25, 0.5, 1, 2 and 8 hours post-dose. At each timepoint, mice (3/timepoint) were euthanized in a […] chamber. Whole blood was obtained by cardiac puncture into Microtainer tubes containing heparin and immediately centrifuged for preparation of plasma; plasma was stored at −80° C. At each timepoint, whole brain samples were obtained by decapitation, rinsed in ice-cold phosphate-buffered saline and weighed. Brain samples were then immediately flash-frozen in liquid nitrogen and stored at −80° C.
The following table outlines the LC and MS/MS conditions employed:
The calibration range for the MRS4322 plasma concentration standard curve was 2.26-241 ng/mL. The calibration range for MRS4322 brain concentrations was 2.35-242 ng/mL.
For bioanalysis of brain concentrations of MRS4322, brain samples were homogenized in ice-cold phosphate-buffered saline in a 4× dilution. Aliquots of the resulting diluted brain homogenate were treated with acetonitrile and analyzed by LC-MS/MS. Because of the 4× homogenate dilution, the calibration range of the MRS4322 brain standard curve was translated to 9.40-968 ng/gm. In several samples, MRS4322 were detectable but fell below the brain LLOQ of 9.40 ng/gm but were above background; in these cases the final reported brain concentration was extrapolated based on MS peak heights.

[3] = Brain binding determination by brain homogenate ultrafiltration, mouse; assay type: in vitro ADME; conditions: 37° C., ultrafiltration; for fraction unbound at 60 min, 1 μM: male, CD-1, mouse, brain homogenate, pH 7.4, mouse brain homogenate
Method: (§1) Animals and Tissue Preparation: Plasma from male CD-1 mice was obtained from BioreclamationIVT (Westbury, NY) and stored at −80° C. until use. Male CD-1 mouse brains were obtained from BioreclamationIVT (Westbury, NY).
Brains were weighed and homogenized with 1:9 phosphate-buffered saline, pH 7.4 using an Omni tissue homogenizer. Brains from four mice were homogenized, pooled and mixed to form one sample.
Pooled homogenized brains were pre-warmed for 60 minutes in a humidified, 5% CO2 incubator maintained at 37° C. […] Spiked pooled brain homogenates were placed on a Nutator mixer in a humidified, 5% CO2 incubator at 37° C. for 60 minutes. After 60 minutes, three 800 μL aliquots of each sample were added to Centrifree centrifugal filters. The filters were subjected to centrifugation at 2900 rpm for 10 minutes at 37° C. Aliquots of residual brain homogenate and ultrafiltrate were collected for bioanalysis.
(§2) Plasma and brain concentrations of MRS4322 and MRS5698 in spiked plasma, brain homogenates and associated ultrafiltrates were determined by LC-MS/MS utilizing tolbutamide as an internal standard. […] The following tables outline the LC and MS/MS conditions employed (Tables 7 and 8).
(§3) For each tissue matrix, standard curves were created and LLOQ/ULOQ concentrations determined. The calibration range for the MRS4322 and MRS5698 plasma concentration standard curves was 400-1200 nM. The calibration range for MRS4322 and MRS5698 plasma ultrafiltrate standard curves was 100-1200 nM. The calibration range for MRS4322 brain homogenate and brain homogenate ultrafiltrate standard curves were 400-1200 nM and 100-1200 nM, respectively. The calibration range for MRS5698 brain homogenate and brain homogenate ultrafiltrate standard curves were 400-1200 nM and 1-500 nM, respectively.

[4] = Plasma binding determination by plasma ultrafiltration, mouse; assay type: in vitro ADME; conditions: for fraction unbound at 60 min, 1 μM: male, CD-1, mouse, plasma
Method: as §1
Plasma ultrafiltrate blank samples were prepared by thawing frozen plasma and then pre-warming plasma in a humidified 5% CO2 chamber at 37° C. for 60 minutes. Aliquots of 800 μL were transferred to Centrifree Centrifugal Filters (Ultracel regenerated cellulose (NMWL 30,000 amu) Lot R5JA31736) and centrifuged at 2900 RPM at 37° C. for 10 minutes; plasma water filtrates were collected and used in preparation of standards, blanks and QC standards.
Plasma samples were pre-warmed for 60 minutes in a humidified, 5% CO2 incubator maintained at 37° C. […] Spiked plasma samples were incubated on a rotary mixer in a humidified 5% CO2 chamber at 37° C. for a minimum of 60 minutes. After 60 minutes, three 800 μL aliquots of each sample were added to Centrifree centrifugal filters. The filters were subjected to centrifugation at 2900 rpm for 10 minutes at 37° C. Three 100 μL aliquots of residual plasma were collected along with ultrafiltrate for bioanalysis.
as §2, §3

[5] = Stability of MRS2365 incubated in phosphate-buffered saline; assay type: physicochemical
[6] = read-out: Fraction Unbound Mean
[7] = mouse plasma, 1 μM, 37° C., ultrafiltration, read-out: Fraction Unbound Mean

CSc1nc(N)c2ncn([C@H]3[C@H](O)[C@H](O)[C@]4(CO)C[C@H]34)c2n1 [MRS4322]
Ki ([1]; read-out: Ki ± SEM, Mouse A3R, [^3H]NECA, CHO cell membrane preparations, [^3H]NECA (10 nM)): 4.94 ± 0.974 µM | Plasma Concentration Mean ([2]; 0 h): BLQ | Plasma Concentration by Subject ([2]; 0 h): BLQ | Brain Concentration Mean ([2]; 0.083 h): BLQ | Brain Concentration by Subject ([2]; 0.083 h): BLQ | Brain Concentration Mean ([2]; 1 h): BLQ | Brain Concentration by Subject ([2]; 1 h): BLQ | Brain Concentration Mean ([2]; 2 h): BLQ | Brain Concentration by Subject ([2]; 2 h): BLQ | Brain Concentration Mean ([2]; 8 h): BLQ | Plasma Concentration Mean ([2]; 8 h): BLQ | Brain Concentration by Subject ([2]; 8 h): BLQ | Plasma Concentration by Subject ([2]; 8 h): BLQ | Kp ([2]; female, C57BL/6J, mouse, MRS4322 after MRS2365 ip to mice, based on mean Cmax concentrations in plasma and brain, read-out: brain/plasma ratio of total drug): ~0.1 | fraction unbound at 60 min, 1 μM ([3]; read-out: % Bound Mean (converted)): 0.13 | fraction unbound at 60 min, 1 μM [3, 6]: 0.13 | % Bound Mean ([3]; mouse brain homogenate, 1 μM): 87.0% | Fraction Unbound Mean ([3]; mouse brain homogenate, 1 μM): 0.130 | fraction unbound at 60 min, 1 μM ([4]; mouse plasma, 1 μM, 37° C., ultrafiltration, read-out: % Bound Mean (converted)): 0.742 | fraction unbound at 60 min, 1 μM [4, 7]: 0.742 | fraction available to interact with the A3 receptor relative to Cl-IB-MECA ([4]; mouse models, from unbound fractions in plasma and brain): at least 1000 fold | Fraction Unbound Mean ([4]; mouse plasma, 1 μM, 37° C., ultrafiltration): 0.74

CNC(=O)[C@H]1O[C@@H](n2cnc3c(NCc4cccc(I)c4)nc(Cl)nc32)[C@H](O)[C@@H]1O [Cl-IB-MECA, 2-Chloro-N^6-(3-iodobenzyl)-adenosine-5′-N-methyluronamide, reference compound]
difference in affinity of Cl-IB-MECA and MRS4322 at mouse A3 receptor ([1]; Cl-IB-MECA vs MRS4322): approximately 25,000 fold | fraction unbound at 60 min, 1 μM [3, 6]: 0.002 | fraction unbound at 60 min, 1 μM [4, 7]: 0.002

CSc1nc(N)c2ncn([C@H]3[C@H](O)[C@H](O)[C@]4(COP(=O)(O)OP(=O)(O)O)C[C@H]34)c2n1 [MRS2365]
stability when incubated in phosphate-buffered saline [5]: completely stable | metabolism following intraperitoneal administration to mice ([2]; MRS2365 0.5 μmol/kg ip, comparison with equimolar MRS4322): rapidly and completely metabolized to MRS4322
